The results in this text go back to US11242337B2, “Compounds useful for treating gastrointestinal tract disorders” (Ardelyx, Inc., priority 2017, dated 2022).

The term IC50 denotes the point on the concentration scale where inhibition reaches its midpoint.

Counter-ions that a name gives are not always drawn.

In test [1] the target is T1, NHE3 (Homo sapiens, UniProt P48764).
T1 construct: expressed in transfected cells
T1 sequence (P48764 26-834): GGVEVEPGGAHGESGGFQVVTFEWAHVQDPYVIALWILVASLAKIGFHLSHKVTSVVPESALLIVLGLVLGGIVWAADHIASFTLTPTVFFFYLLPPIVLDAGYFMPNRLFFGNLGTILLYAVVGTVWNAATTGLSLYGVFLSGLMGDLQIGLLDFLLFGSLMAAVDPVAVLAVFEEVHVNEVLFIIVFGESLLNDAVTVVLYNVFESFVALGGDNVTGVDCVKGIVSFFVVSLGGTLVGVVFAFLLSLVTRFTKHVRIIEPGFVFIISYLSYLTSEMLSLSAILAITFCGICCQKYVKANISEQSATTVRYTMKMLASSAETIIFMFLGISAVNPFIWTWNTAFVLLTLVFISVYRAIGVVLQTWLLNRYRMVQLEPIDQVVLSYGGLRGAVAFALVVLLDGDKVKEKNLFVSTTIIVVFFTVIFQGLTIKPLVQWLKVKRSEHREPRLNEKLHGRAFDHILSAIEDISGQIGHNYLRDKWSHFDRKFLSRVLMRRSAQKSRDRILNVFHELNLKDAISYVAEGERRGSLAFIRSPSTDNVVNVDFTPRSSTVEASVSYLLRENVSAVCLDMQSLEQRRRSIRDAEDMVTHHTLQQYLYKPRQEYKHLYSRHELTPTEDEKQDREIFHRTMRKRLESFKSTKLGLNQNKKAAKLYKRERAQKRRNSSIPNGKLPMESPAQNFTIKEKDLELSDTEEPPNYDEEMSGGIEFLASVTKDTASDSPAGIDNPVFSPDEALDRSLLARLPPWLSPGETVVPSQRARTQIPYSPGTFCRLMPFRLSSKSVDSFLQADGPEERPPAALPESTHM
T1 sequence (Q99653 2-195 partner limits assumed): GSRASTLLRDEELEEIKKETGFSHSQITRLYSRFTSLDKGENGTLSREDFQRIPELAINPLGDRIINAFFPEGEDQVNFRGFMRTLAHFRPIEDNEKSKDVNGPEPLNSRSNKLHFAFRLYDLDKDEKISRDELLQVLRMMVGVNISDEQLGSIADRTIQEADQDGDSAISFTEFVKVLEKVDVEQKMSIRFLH
Nature of the test: Cell-based assay of NHE-3 activity (persistent inhibition), human. The conditions noted are these: human Persistence, 60 min incubation then washout. In short, it runs like this: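 PS120 fibroblasts expressing human NHE3 with NHERF2 exposed to 0-30 μM compound for 60 min at RT, then washed out; cells acid-loaded by NH4Cl prepulse with BCECF-AM and Na+-free buffer. Na+-driven pH recovery started 10 min post-washout; initial rate of BCECF ratio change (FLIPR) taken as activity.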

Test [2] concerns the target T1, NHE3. The test can be described thus: Cell-based assay of NHE-3 activity (pre-incubation inhibition), human. The conditions noted are these: human Preincubation; for pIC50 / IC50: 0-30 μM test compound. In outline:
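PS120 fibroblasts stably expressing human NHE3 and NHERF2, loaded 30 min at 37 °C with 5 μM BCECF-AM in NH4Cl buffer, then acidified 10 min at room temperature in Na+-free buffer with 0–30 μM compound. Initial rate of BCECF fluorescence ratio change (FLIPR) per minute taken as Na+/H+ activity.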

Take `Cc1cc(S(=O)(=O)NCCOCCOCCNC(=O)NCCCCNC(=O)NCCOCCOCCNS(=O)(=O)c2cc(C)c(O[C@H]3c4cc(Cl)cc(Cl)c4C[C@@H]3N(C)C)cc2F)c(F)cc1O[C@H]1c2cc(Cl)cc(Cl)c2C[C@@H]1N(C)C` [Example 90, 3-[2-(2-[2-[(4-[[(1S,2S)-4,6-Dichloro-2-(dimethylamino)-2,3-dihydro-1H-inden-1-yl]oxy]-2-fluoro-5-methylbenzene)sulfonamido]ethoxy]ethoxy)ethyl]-1-[4-([[2-(2-[2-[(4-[[(1S,2S)-4,6-dichloro-2-(dimethylamino)-2,3-dihydro-1H-inden-1-yl]oxy]-2-fluoro-5-methylbenzene)sulfonamido]ethoxy]ethoxy)ethyl]carbamoyl]amino)butyl]urea; bis(trifluoroacetic acid)]: on NHE3 [1], the “% inhibition” value is recorded as “C (>70%)” and the IC50 is 100 to 1000 nM. Further, at NHE3 [2], the “% inhibition” value is reported as “C (>70%)” and the pIC50 entry is listed as “C (NHE3 pIC50 > 7)”.

Consider `Cc1cc(S(=O)(=O)N[C@H]2CCN(CCOCCNC(=O)NCCCCNC(=O)NCCOCCN3CC[C@H](NS(=O)(=O)c4ccc(O[C@H]5c6cc(Cl)cc(C#N)c6C[C@@H]5N(C)C)c(C)c4)C3=O)C2=O)ccc1O[C@H]1c2cc(Cl)cc(C#N)c2C[C@@H]1N(C)C` [Example 92, 1-(2-[2-[(3S)-3-[(4-[[(1S,2S)-6-Chloro-4-cyano-2-(dimethylamino)-2,3-dihydro-1H-inden-1-yl]oxy]-3-methylbenzene)sulfonamido]-2-oxopyrrolidin-1-yl]ethoxy]ethyl)-3-(4-[[(2-[2-[(3S)-3-[(4-[[(1S,2S)-6-chloro-4-cyano-2-(dimethylamino)-2,3-dihydro-1H-inden-1-yl]oxy]-3-methylbenzene)sulfonamido]-2-oxopyrrolidin-1-yl]ethoxy]ethyl)carbamoyl]amino]butyl)urea; bis(trifluoroacetic acid)], for which, on NHE3 [1], the “% inhibition” value is “C (>70%)” and the pIC50 result is given as “C (NHE3 pIC50 > 7)”. At NHE3 [2], the “% inhibition” value is listed as “C (>70%)” and the pIC50 result was “C (NHE3 pIC50 > 7)”.

For `N[C@@H]1CCCN([C@H]2Cc3c(Cl)cc(Cl)cc3[C@@H]2Oc2ccc(S(=O)(=O)N3CC[C@@H](OCCOCCNC(=O)NCCCCNC(=O)NCCOCCO[C@@H]4CCN(S(=O)(=O)c5ccc(O[C@H]6c7cc(Cl)cc(Cl)c7C[C@@H]6N6CCC[C@@H](N)C6)cc5)C4)C3)cc2)C1` [Example 93, 3-[2-(2-[[(3R)-1-[(4-[[(1S,2S)-2-[(3R)-3-Aminopiperidin-1-yl]-4,6-dichloro-2,3-dihydro-1H-inden-1-yl]oxy]benzene)sulfonyl]pyrrolidin-3-yl]oxy]ethoxy)ethyl]-1-[4-([[2-(2-[[(3R)-1-[(4-[[(1S,2S)-2-[(3R)-3-aminopiperidin-1-yl]-4,6-dichloro-2,3-dihydro-1H-inden-1-yl]oxy]benzene)sulfonyl]pyrrolidin-3-yl]oxy]ethoxy)ethyl]carbamoyl]amino)butyl]urea], on NHE3 [1], the “% inhibition” value is reported as “C (>70%)” and the IC50 was < 100 nM. Also, on NHE3 [2], the “% inhibition” value is recorded as “C (>70%)” and the concentration for half-maximal inhibition (IC50) is < 100 nM.

In the case of `N[C@@H]1CCCN([C@H]2Cc3c(Cl)cc(Cl)cc3[C@@H]2Oc2ccc(S(=O)(=O)N3CC[C@H](OCCOCCNC(=O)NCCCCNC(=O)NCCOCCO[C@H]4CCN(S(=O)(=O)c5ccc(O[C@H]6c7cc(Cl)cc(Cl)c7C[C@@H]6N6CCC[C@@H](N)C6)cc5)C4)C3)cc2)C1` [Example 94, 3-[2-(2-[[(3S)-1-[(4-[[(1S,2S)-2-[(3R)-3-Aminopiperidin-1-yl]-4,6-dichloro-2,3-dihydro-1H-inden-1-yl]oxy]benzene)sulfonyl]pyrrolidin-3-yl]oxy]ethoxy)ethyl]-1-[4-([[2-(2-[[(3S)-1-[(4-[[(1S,2S)-2-[(3R)-3-aminopiperidin-1-yl]-4,6-dichloro-2,3-dihydro-1H-inden-1-yl]oxy]benzene)sulfonyl]pyrrolidin-3-yl]oxy]ethoxy)ethyl]carbamoyl]amino)butyl]urea], on NHE3 [1], the “% inhibition” value is “C (>70%)” and the pIC50 result is listed as “C (NHE3 pIC50 > 7)”. Further, at NHE3 [2], the “% inhibition” value was “C (>70%)” and the pIC50 entry is listed as “C (NHE3 pIC50 > 7)”.

`N[C@@H]1CCCN([C@H]2Cc3c(Cl)cc(Cl)cc3[C@@H]2Oc2ccc(S(=O)(=O)N3CCC(OCCOCCNC(=O)NCCCCNC(=O)NCCOCCOC4CCN(S(=O)(=O)c5ccc(O[C@H]6c7cc(Cl)cc(Cl)c7C[C@@H]6N6CCC[C@@H](N)C6)cc5)CC4)CC3)cc2)C1` [Example 95, 3-[2-[2-([1-[(4-[[(1S,2S)-2-[(3R)-3-Aminopiperidin-1-yl]-4,6-dichloro-2,3-dihydro-1H-inden-1-yl]oxy]benzene)sulfonyl]piperidin-4-yl]oxy)ethoxy]ethyl]-1-[4-[([2-[2-([1-[(4-[[(1S,2S)-2-[(3R)-3-aminopiperidin-1-yl]-4,6-dichloro-2,3-dihydro-1H-inden-1-yl]oxy]benzene)sulfonyl]piperidin-4-yl]oxy)ethoxy]ethyl]carbamoyl)amino]butyl]urea]: at NHE3 [1], the “% inhibition” value was “C (>70%)” and the pIC50 entry was “C (NHE3 pIC50 > 7)”. In addition, on NHE3 [2], the “% inhibition” value was “C (>70%)” and the pIC50 result was “C (NHE3 pIC50 > 7)”.

Regarding `C[C@@H](COCCOCCNC(=O)NCCCCNC(=O)NCCOCCOC[C@H](C)NS(=O)(=O)c1ccc(O[C@H]2c3cc(Cl)cc(Cl)c3C[C@@H]2N2CCC[C@@H](N)C2)cc1)NS(=O)(=O)c1ccc(O[C@H]2c3cc(Cl)cc(Cl)c3C[C@@H]2N2CCC[C@@H](N)C2)cc1` [Example 96, 1-(2-[2-[(2S)-2-[(4-[[(1S,2S)-2-[(3R)-3-Aminopiperidin-1-yl]-4,6-dichloro-2,3-dihydro-1H-inden-1-yl]oxy]benzene)sulfonamido]propoxy]ethoxy]ethyl)-3-(4-[[(2-[2-[(2S)-2-[(4-[[(1S,2S)-2-[(3R)-3-aminopiperidin-1-yl]-4,6-dichloro-2,3-dihydro-1H-inden-1-yl]oxy]benzene)sulfonamido]propoxy]ethoxy]ethyl)carbamoyl]amino]butyl)urea; hydrochloride], at NHE3 [1], the “% inhibition” value was “C (>70%)” and the IC50 is < 100 nM. For the same compound, on NHE3 [2], the “% inhibition” value was “C (>70%)” and the IC50 was < 100 nM.

For the compound `C[C@H](COCCOCCNC(=O)NCCCCNC(=O)NCCOCCOC[C@@H](C)NS(=O)(=O)c1ccc(O[C@H]2c3cc(Cl)cc(Cl)c3C[C@@H]2N2CCC[C@@H](N)C2)cc1)NS(=O)(=O)c1ccc(O[C@H]2c3cc(Cl)cc(Cl)c3C[C@@H]2N2CCC[C@@H](N)C2)cc1` [Example 97, 3-(2-[2-[(2R)-2-[(4-[[(1S,2S)-2-[(3R)-3-Aminopiperidin-1-yl]-4,6-dichloro-2,3-dihydro-1H-inden-1-yl]oxy]benzene)sulfonamido]propoxy]ethoxy]ethyl)-1-(4-[[(2-[2-[(2R)-2-[(4-[[(1S,2S)-2-[(3R)-3-aminopiperidin-1-yl]-4,6-dichloro-2,3-dihydro-1H-inden-1-yl]oxy]benzene)sulfonamido]propoxy]ethoxy]ethyl)carbamoyl]amino]butyl)urea], the “% inhibition” value on NHE3 [1] and at NHE3 [2] was “C (>70%)” throughout. Also, the pIC50 entry at NHE3 [1] and on NHE3 [2] was “C (NHE3 pIC50 > 7)” each time.

Regarding `CC(C)[C@@H](COCCOCCNC(=O)NCCCCNC(=O)NCCOCCOC[C@@H](NS(=O)(=O)c1ccc(O[C@H]2c3cc(Cl)cc(Cl)c3C[C@@H]2N2CCC[C@@H](N)C2)cc1)C(C)C)NS(=O)(=O)c1ccc(O[C@H]2c3cc(Cl)cc(Cl)c3C[C@@H]2N2CCC[C@@H](N)C2)cc1` [Example 98, 3-(2-[2-[(2S)-2-[(4-[[(1S,2S)-2-[(3R)-3-Aminopiperidin-1-yl]-4,6-dichloro-2,3-dihydro-1H-inden-1-yl]oxy]benzene)sulfonamido]-3-methylbutoxy]ethoxy]ethyl)-1-(4-[[(2-[2-[(2S)-2-[(4-[[(1S,2S)-2-[(3R)-3-aminopiperidin-1-yl]-4,6-dichloro-2,3-dihydro-1H-inden-1-yl]oxy]benzene)sulfonamido]-3-methylbutoxy]ethoxy]ethyl)carbamoyl]amino]butyl)urea dihydrochloride], at NHE3 [1], the “% inhibition” value was “C (>70%)” and the pIC50 result was “C (NHE3 pIC50 > 7)”. Also, on NHE3 [2], the “% inhibition” value is “C (>70%)” and the pIC50 entry was “C (NHE3 pIC50 > 7)”.
